Experimental data published in patent US20250019344A1, “CREATINE CARBONATE AND METHODS OF PRODUCTION AND USES” (ThermoLife International, LLC, priority 2023, published 2025).

Key:
Type in all cases: in vivo, human
[1] = Knee extension exercise at 80% maximum weight after creatine supplementation; details: at end of supplementation, 20 g once per day with 1000 ml water; usual 6 extensions (control)
From the text: (§1) At the end on day 5, the subject was able to perform 8 knee extensions at 80% maximum weight (200 lbs.). This was 2 more than their usual 6 extensions with this weight (control). So, creatine supplementation with creatine monohydrate improved the subject's physical performance though with gastrointestinal side effects.
(§2) After a washout period of 14 days, where the subject ingested no creatine supplements, they began a second period of creatine supplementation with 20 g creatine carbonate, also taken once per day with 1000 ml water. […] At the end of the creatine supplementation with creatine carbonate, the subject again evaluated the effect of creatine supplementation with knee extension exercises at 80% maximum weight (200 lbs.). They performed 10 extensions, which was better than either the control or after 5 days of creatine monohydrate supplementation.

[2] = Gastrointestinal tolerability after oral creatine supplementation in a subject; details: for gastrointestinal side effects: 20 g once per day with 1000 ml of water, monohydrate for 5 consecutive days, carbonate after 14 days washout
Description: A subject, trained, was administered 5 g creatine carbonate and monitored for any gastrointestinal tract symptoms. […] In contrast, the subject would develop a bloated stomach with creatine supplements currently on the market.
as §1, §2

[3] = Blood lactate after treadmill exercise (Heartscare C1 lactate monitoring system); details: person; treadmill 5 miles per hour for 10 minutes, 60 minutes after ingesting 10 g; without supplement 8.1 mmol/L
Description: A recreationally active person used the treadmill at 5 miles per hour for 10 minutes and measured their lactate levels using a Heartscare C1 lactate monitoring system. Their blood lactate measured at 8.1 mmol/L. After a two-day washout period, they repeated the same treadmill exercise 60 minutes after ingesting 10 g creatine carbonate. Their blood lactate measured at 7.1 mmol/L. Thus, even without creatine loading, creatine carbonate can reduce lactate production from exercise, as measured by blood lactate level.

SMILES	knee extensions performed at 80% maximum weight (200 lbs.) [1]	gastrointestinal side effects [2]	gastrointestinal tract symptoms ([2]; subject, trained, 5 g administered)	onset of gastrointestinal distress ([2]; up to 20 grams orally administered to subjects)	blood lactate [3] [mmol/L]
CN(CC(=O)O)C(=N)N.O [creatine monohydrate, reference compound]	8	gastrointestinal disturbances, such as diarrhea and stomach bloating, occurred			
CN(CC(=O)O)C(=N)N.O=C(O)O [creatine carbonate]	10	Besides light belching, no other gastrointestinal side effects were noted	did not experience any unwanted gastrointestinal tract issues except a little belching	without onset of gastrointestinal distress	7.1
